The values below come from patent US8487108B2, “Piperidinyl carbamate intermediates for the synthesis of aspartic protease inhibitors” (Vitae Pharmaceuticals, Inc., priority 2005, dated 2013).

Each structure is given as a SMILES string.

In the test the target is T1, trypsin-activated recombinant human renin (Homo sapiens, UniProt P00797).
T1 sequence (P00797 67-406): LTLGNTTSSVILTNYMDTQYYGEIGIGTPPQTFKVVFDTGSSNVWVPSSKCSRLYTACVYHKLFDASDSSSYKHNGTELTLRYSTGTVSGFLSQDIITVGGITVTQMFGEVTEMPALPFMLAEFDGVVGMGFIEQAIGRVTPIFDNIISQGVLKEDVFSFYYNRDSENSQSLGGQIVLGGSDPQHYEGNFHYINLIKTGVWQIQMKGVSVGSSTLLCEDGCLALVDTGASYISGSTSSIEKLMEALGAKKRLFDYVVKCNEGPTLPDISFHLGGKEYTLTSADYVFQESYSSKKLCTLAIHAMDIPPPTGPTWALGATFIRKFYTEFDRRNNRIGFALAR
Kind of test: Renin fluorescence assay (internally quenched peptide substrate). The test is classed as biochemical. Conditions: compounds I*. As to the method:
The sequence of this peptide corresponds to the sequence of human angiotensinogen. The following test protocol can be used. All reactions are carried out in a flat bottom white opaque microtiter plate. A 4 μL aliquot of 400 μM renin substrate (DABCYL-γ-[…]) in 192 μL assay buffer (50 mM BES, 150 mM NaCl, 0.25 mg/mL bovine serum albumin, pH7.0) is added to 4 μL of test compound in DMSO at various concentrations ranging from 10 μM to 1 nM final concentrations. Next, 100 μL of trypsin-activated recombinant human renin (final enzyme concentration of 0.2-2 nM) in assay buffer is added, and the solution is mixed by pipetting. The increase in fluorescence at 495 nm (excitation at 340 nm) is measured for 60-360 minutes at rt using a Perkin-Elmer Fusion microplate reader. The slope of a linear portion of the plot of fluorescence-increase as a function of time is then determined, and the rate is used for calculating percent inhibition in relation to uninhibited control. […] (Wang G. T. et al. Anal. Biochem. 1993, 210, 351; Nakamura, N. et al. J. Biochem. (Tokyo) 1991, 109, 741; Murakami, K. et al. Anal Biochem. 1981, 110, 232).
Take `CNC[C@H](CC1CCCCC1)NC(=O)N1CCC[C@@H]([C@@H](OCCNC(=O)OC)c2ccccc2)C1` (mixture of isomers) [I*-2a, methyl 2-((R)—((R)-1-((±)-1-cyclohexyl-3-(methylamino)propan-2-ylcarbamoyl)piperidin-3-yl)(phenyl)methoxy)ethylcarbamate]: the IC50 is < 10 nM. On to `COC(=O)NCCO[C@@H](c1cccc(Cl)c1)[C@@H]1CCCN(C(=O)N[C@H]2CNC[C@@H]2CC(C)C)C1` (relative stereo) [I*-11a, methyl 2-((R)-(3-chlorophenyl)((R)-1-((3R*,4S*)-4-isobutylpyrrolidin-3-ylcarbamoyl)piperidin-3-yl)methoxy)ethylcarbamate], for which the IC50 is < 50 nM. With `COC(=O)NCCO[C@@H](c1cccc(Cl)c1)[C@@H]1CCCN(C(=O)N[C@@H]2CNCC[C@H]2CC2CCC2)C1` (relative stereo) [I*-44a, methyl 2-((R)-(3-chlorophenyl)((R)-1-((3S*,4R*)-4-(cyclobutylmethyl)piperidin-3-ylcarbamoyl)piperidin-3-yl)methoxy)ethylcarbamate] the figure was < 10 nM; with `CNC[C@@H](C[C@H]1CCCC[C@@H]1O)NC(=O)N1CCC[C@@H]([C@@H](OCCNC(=O)OC)c2cccc(Cl)c2)C1` (relative stereo) [I*-104a, methyl 2-((R)-(3-chlorophenyl)((R)-1-((R)-1-((1R*,2S*)-2-hydroxycyclohexyl)-3-(methylamino)propan-2-ylcarbamoyl)piperidin-3-yl)methoxy)ethylcarbamate], < 20 nM.

Turning to `CNC[C@H](C[C@H]1CCCC[C@@H]1O)NC(=O)N1CCC[C@@H]([C@@H](OCCNC(=O)OC)c2cccc(Cl)c2)C1` (relative stereo) [I*-105a, methyl 2-((R)-(3-chlorophenyl)((R)-1-((S)-1-((1R,2S)-2-hydroxycyclohexyl)-3-(methylamino)propan-2-ylcarbamoyl)piperidin-3-yl)methoxy)ethylcarbamate], the IC50 is < 10 nM. Then `CNC[C@H](CCCOC)NC(=O)N1CCC[C@@H]([C@@H](OCCNC(=O)OC)c2cccc(Cl)c2)C1` [I*-1a], with > 50 nM; and `CNC[C@H](CC1CCOCC1)NC(=O)N1CCC[C@@H]([C@@H](OCCNC(=O)OC)c2ccccc2)C1` [I*-3a, methyl 2-((R)—((R)-1-((S)-4-(methylamino)-3-(tetrahydro-2H-pyran-4-yl)propan-2-ylcarbamoyl)piperidin-3-yl)(phenyl)methoxy)ethylcarbamate], with < 50 nM. With `COC(=O)NCCO[C@@H](c1cccc(F)c1)[C@@H]1CCCN(C(=O)N[C@H](CN)CC2CCCCC2)C1` [I*-4a, methyl 2-((R)-((R)-1-((S)-1-amino-3-cyclohexylpropan-2-ylcarbamoyl)piperidin-3-yl)(3-fluorophenyl)methoxy)ethylcarbamate] the figure was < 1 nM. Then `CNC[C@H](CC1CCCC1)NC(=O)N1CCC[C@@H]([C@@H](OCCNC(=O)OC)c2cccc(F)c2)C1` [I*-5a, methyl 2-((R)—((R)-1-((S)-1-cyclopentyl-3-(methylamino)propan-2-ylcarbamoyl)piperidin-3-yl)(3-fluorophenyl)methoxy)ethylcarbamate], with < 10 nM. As for `CNC[C@H](CC1CCOC1)NC(=O)N1CCC[C@@H]([C@@H](OCCNC(=O)OC)c2cccc(F)c2)C1` (stereo partly drawn) [I*-6a, methyl 2-((R)-(3-fluorophenyl)((3R)-1-((S)-1-(methylamino)-3-(tetrahydrofuran-3-yl)propan-2-ylcarbamoyl)piperidin-3-yl)methoxy)ethylcarbamate], the IC50 is > 50 nM. Then `CCC(C)(C)C[C@@H](CNC)NC(=O)N1CCC[C@@H]([C@@H](OCCNC(=O)OC)c2cccc(F)c2)C1` [I*-7a, methyl 2-((R)-((R)-1-((S)-4,4-dimethyl-1-(methylamino)hexan-2-ylcarbamoyl)piperidin-3-yl)(3-fluorophenyl)methoxy)ethylcarbamate], with < 10 nM.
